Experimental data: patent US9156811B2 (priority 2008, dated 2015)
Read-outs that look alike come from different tables or passages of the source.

Key:
[1] = biological target: T. brucei N-myristoyl transferase (Trypanosoma brucei brucei (strain 927/4 GUTat10.1), UniProt Q388H8); assay: biochemical; assay type: biochemical; conditions: read-out: IC50 (μM) NMT Enzyme
[2] = tested on: Trypanosome (T. brucei brucei); assay: In-vitro antitrypanosomal efficacy assay (cell growth, resazurin); assay type: cell-based
Description: To column 12, 200 μl media was added to provide a no cells control. Plates were then incubated at 37° C. in an atmosphere of 5% CO2 for 69 hours, before the addition of 20 μl of 500 μM rezasurin solution, and a further incubation period of 4 hours. […] Concentration effect curves were fitted using non-linear regression using XLFit 4.2 and EC50 values determined.

[3] = value with no enzyme tag in the cell, taken as T. brucei NMT
[4] = value printed without enzyme tag in the NMT Enzyme column (taken as T. brucei NMT)
[5] = T. brucei brucei, blood stream form, variant 221

Chain of T. brucei N-myristoyl transferase (Q388H8 1-446): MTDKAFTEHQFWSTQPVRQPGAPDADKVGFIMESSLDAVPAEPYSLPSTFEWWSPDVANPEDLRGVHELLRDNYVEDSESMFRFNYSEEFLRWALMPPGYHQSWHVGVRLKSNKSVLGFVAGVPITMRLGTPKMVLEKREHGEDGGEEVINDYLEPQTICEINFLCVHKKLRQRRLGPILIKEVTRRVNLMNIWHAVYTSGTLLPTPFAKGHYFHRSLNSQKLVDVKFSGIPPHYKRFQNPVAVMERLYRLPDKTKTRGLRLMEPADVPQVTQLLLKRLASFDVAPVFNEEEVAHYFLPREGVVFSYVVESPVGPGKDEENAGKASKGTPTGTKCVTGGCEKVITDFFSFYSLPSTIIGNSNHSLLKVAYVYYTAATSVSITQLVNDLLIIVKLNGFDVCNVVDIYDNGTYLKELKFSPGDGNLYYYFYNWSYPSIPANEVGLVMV

Row | Compound | IC50 [1, 3] | ED50 (μM) T. brucei ([2]; T. brucei cell growth) | IC50 [1, 4] | ED50 (μM) T. brucei [2, 5]
1 | Cc1nn(C)c(C)c1N[S+](=O)([O-])c1c(Cl)cc(-c2ccnc(NCCN)c2)cc1Cl | 1 µM | >1 µM | – | –
2 | Cc1nn(C)c(C)c1N[S+](=O)([O-])c1ccc(NCCCN2CCN(Cc3ccccc3)CC2)nc1 [DD86299] | 1 µM | >1 µM | – | –
3 | Cc1nn(C)c(C)c1N[S+](=O)([O-])c1ccc2c(c1)OCCO2 [DDD16771] | – | >1 µM | 4 µM | –
4 | Cc1cc(N2CCCC2=O)cc(C)c1[S+](=O)([O-])Nc1c(C)nn(C)c1C [DDD22988] | – | >1 µM | 8.3 µM | –
5 | Cc1nn(C)c(C)c1N[S+](=O)([O-])c1ccccc1 [DDD48025] | – | >1 µM | 11.8 µM | –
6 | Cc1nn(C)c(C)c1N[S+](=O)([O-])c1cc(Cl)sc1Cl [DDD61495] | – | >1 µM | 6.4 µM | –
7 | COc1ccc(OC)c([S+](=O)([O-])Nc2c(C)nn(C)c2C)c1 [DDD64750] | – | >1 µM | 30 µM | –
8 | Cc1nn(C)c(C)c1N[S+](=O)([O-])c1ccc2c(c1)OCCCO2 [DDD71230] | – | >1 µM | 3.5 µM | –
9 | CC(=O)c1ccc([S+](=O)([O-])Nc2c(C)nn(C)c2C)cc1 [DDD71232] | – | >1 µM | 42 µM | –
10 | COc1ccc([S+](=O)([O-])Nc2c(C)nn(C)c2C)cc1Br [DDD71233] | – | >1 µM | 2.6 µM | –
11 | Cc1nn(C)c(C)c1N[S+](=O)([O-])c1ccc(OC(F)(F)F)cc1 [DDD71234] | – | >1 µM | 2.7 µM | –
12 | CC(=O)N1CCc2cc([S+](=O)([O-])Nc3c(C)nn(C)c3C)ccc21 [DDD71237] | – | >1 µM | 8.8 µM | –
13 | Cc1nn(C)c(C)c1N[S+](=O)([O-])c1ccc(C#N)cc1 [DDD71238] | – | >1 µM | 32.6 µM | –
14 | Cc1nn(C)c(C)c1N[S+](=O)([O-])c1cccc(Br)c1 [DDD71240] | – | >1 µM | 8 µM | –
15 | Cc1nn(C)c(C)c1N[S+](=O)([O-])c1ccc(C(C)C)cc1 [DDD71241] | – | >1 µM | 1.5 µM | –
16 | CCC(C)c1ccc([S+](=O)([O-])Nc2c(C)nn(C)c2C)cc1 (centres unmarked) [DDD71242] | – | >1 µM | 4.3 µM | –
17 | Cc1cc(C(C)(C)C)cc(C)c1[S+](=O)([O-])Nc1c(C)nn(C)c1C [DDD71243] | – | 5.8 µM | 0.5 µM | –
18 | Cc1nn(C)c(C)c1N[S+](=O)([O-])c1ccc2c(c1)CC(=O)N2 [DDD71244] | – | >1 µM | 15.9 µM | –
19 | Cc1nn(C)c(C)c1N[S+](=O)([O-])c1ccccc1F [DDD71245] | – | >1 µM | 5.6 µM | –

Row | Compound | IC50 [1, 3] | ED50 (μM) T. brucei ([2]; T. brucei cell growth) | IC50 [1, 4] | ED50 (μM) T. brucei [2, 5]
20 | Cc1nn(C)c(C)c1N[S+](=O)([O-])c1ccc2ccccc2c1 [DDD71246] | – | >1 µM | 8.4 µM | –
21 | Cc1nn(C)c(C)c1N[S+](=O)([O-])c1ccc2c(c1)CCC(=O)N2 [DDD71247] | – | >1 µM | 3.4 µM | –
22 | Cc1nn(C)c(C)c1N[S+](=O)([O-])c1c(C)c(C)c(C)c(C)c1C [DDD71248] | – | >1 µM | 62.5 µM | –
23 | Cc1ccc(C(C)(C)C)cc1[S+](=O)([O-])Nc1c(C)nn(C)c1C [DDD71251] | – | >1 µM | > 100 µM | –
24 | Cc1nn(C)c(C)c1N[S+](=O)([O-])c1ccc(Cl)c(C(F)(F)F)c1 [DDD71252] | – | >1 µM | 17.4 µM | –
25 | Cc1nn(C)c(C)c1N[S+](=O)([O-])c1ccc2c(c1)CCC2 [DDD71253] | – | >1 µM | 5.6 µM | –
26 | Cc1nn(C)c(C)c1N[S+](=O)([O-])c1ccc(N2CCOCC2)nc1 [DDD71274] | – | >1 µM | 2 µM | –
27 | COc1ccc(OCCC[S+](=O)([O-])Nc2c(C)nn(C)c2C)cc1 [DDD71275] | – | >1 µM | 62 µM | –
28 | Cc1nn(C)c(C)c1N[S+](=O)([O-])c1ccc(C2OCCO2)cc1 [DDD71276] | – | >1 µM | 9.5 µM | –
29 | COc1cc(C)c([S+](=O)([O-])Nc2cnc3ccccn23)c(C)c1C [DDD71277] | – | >1 µM | 95 µM | –
30 | Cc1nc(-c2ccc([S+](=O)([O-])Nc3c(C)nn(C)c3C)cc2)cs1 [DDD71278] | – | >1 µM | 12.1 µM | –
31 | COc1cc(C)c([S+](=O)([O-])Nc2cccnc2C)c(C)c1C [DDD71279] | – | >1 µM | 10 µM | –
32 | COc1cc(C)c([S+](=O)([O-])Nc2ccncc2)c(C)c1C [DDD71280] | – | >1 µM | > 100 µM | –
33 | Cc1nn(C)c(C)c1N[S+](=O)([O-])c1ccc2c(c1)OCCN2C [DDD71281] | – | >1 µM | 16.1 µM | –
34 | Cc1nn(C)c(C)c1N[S+](=O)([O-])c1ccc2c(c1)OCO2 [DDD71282] | – | >1 µM | 4 µM | –
35 | Cc1nn(C)c(C)c1N[S+](=O)([O-])c1cccc2cccnc12 [DDD71283] | – | >1 µM | 7.4 µM | –
36 | COc1cc(C)c([S+](=O)([O-])Nc2onc(C)c2C)c(C)c1C [DDD71284] | – | >1 µM | > 100 µM | –
37 | COc1cc(C)c([S+](=O)([O-])Nc2c(C)noc2C)c(C)c1C [DDD71285] | – | >1 µM | 19.3 µM | –
38 | COc1ccc([S+](=O)([O-])Nc2c(C)nn(C)c2C)cc1 [DDD71286] | – | >1 µM | 9.8 µM | –

Row | Compound | IC50 [1, 3] | ED50 (μM) T. brucei ([2]; T. brucei cell growth) | IC50 [1, 4] | ED50 (μM) T. brucei [2, 5]
39 | CC(=O)Nc1ccc([S+](=O)([O-])Nc2c(C)nn(C)c2C)cc1 [DDD71287] | – | >1 µM | 2.8 µM | –
40 | COc1cc(C)c([S+](=O)([O-])Nc2cccnc2)c(C)c1C [DDD71288] | – | >1 µM | > 100 µM | –
41 | COc1ccc([S+](=O)([O-])Nc2c(C)nn(C)c2C)cc1OC [DDD71290] | – | >1 µM | 41 µM | –
42 | COc1cc(C)c([S+](=O)([O-])Nc2ccccc2)c(C)c1C [DDD71292] | – | >1 µM | > 100 µM | –
43 | Cc1nn(C)c(C)c1N[S+](=O)([O-])Cc1ccccc1 [DDD71293] | – | >1 µM | > 100 µM | –
44 | Cc1nn(C)c(C)c1N[S+](=O)([O-])c1ccc(-n2cccn2)cc1 [DDD71294] | – | >1 µM | 4.8 µM | –
45 | COc1cc(C)c([S+](=O)([O-])Nc2ccncn2)c(C)c1C [DDD71295] | – | >1 µM | 30 µM | –
46 | COc1cc(C)c([S+](=O)([O-])NCc2c(C)nn(C)c2C)c(C)c1C [DDD71296] | – | >1 µM | > 100 µM | –
47 | Cc1nn(C)c(C)c1N[S+](=O)([O-])c1ccc(-c2ccccc2)cc1 [DDD71297] | – | >1 µM | 10.5 µM | –
48 | Cc1nn(C)c(C)c1N[S+](=O)([O-])c1ccc(Cl)c(Cl)c1 [DDD00071594] | – | >1 µM | 9.9 µM | –
49 | COc1cc(C)c([S+](=O)([O-])N2CCCc3ncccc32)c(C)c1C [DDD71600] | – | >1 µM | 51 µM | –
50 | COc1cc(C)c([S+](=O)([O-])Nc2c(C)n[nH]c2C)c(C)c1C [DDD71601] | – | >1 µM | > 100 µM | –
51 | Cc1nn(C)c(C)c1N(CC(F)(F)F)[S+](=O)([O-])c1c(Cl)cc(CCCOC2CCN(C)CC2)cc1Cl [DDD100803] | – | – | – | 0.008 µM
52 | Cc1nn(C)c(C)c1N(C(F)F)[S+](=O)([O-])c1c(Cl)cc(Br)cc1Cl [DDD100805, 4-bromo-2,6-dichloro-N-(difluoromethyl)-N-(1,3,5-trimethyl-1H-pyrazol-4-yl)benzenesulfonamide] | – | – | – | >1 µM
53 | Cc1c(N[S+](=O)([O-])c2ccc(-c3cccc(C(C)(C)N)c3)cc2)c(CC(C)C)nn1C [DDD100870] | – | – | – | 0.013 µM
54 | Cc1nn(C)c(C)c1N(C(F)F)[S+](=O)([O-])c1c(Cl)cc(CCCOC2CN3CCC2CC3)cc1Cl (centres unmarked) [DDD100872] | – | – | – | 0.002 µM
55 | Cc1c(N(C(F)F)[S+](=O)([O-])c2c(Cl)cc(-c3ccnc(N4CCNCC4)c3)cc2Cl)c(CC(C)C)nn1C [DDD100886] | – | – | – | 0.004 µM
56 | Cc1nn(C)c(C)c1N(C(F)F)[S+](=O)([O-])c1ccc(-c2ccnc(N3CCNCC3)c2)cc1 [DDD100888] | – | – | – | 0.003 µM
57 | Cc1nn(C)c(C)c1N(C(F)F)[S+](=O)([O-])c1ccc(-c2cccc(C3CCNCC3)c2)cc1 [DDD100891] | – | – | – | 0.129 µM
